According to US20220009920A1 (GB005, Inc., priority 2020, published 2022):

How the values were obtained:
Assay in all cases: Large panel kinase profiling
Format in all cases: biochemical
Details in all cases: 1 μM test article, 1 mM ATP
CSNK1E/CK1E = target: T1, CSNK1E/CK1E (Homo sapiens, UniProt P49674)
T1 construct: AssayQuant Technologies, Inc. (service laboratory)
How it was run: (§1)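 CSox-Sensor fluorescence readout; test article 1 μM, ATP 1 mM, 30° C.; kinetic reads at 1-min intervals, Ex 360/Em 485 nm.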

TAOK2 = target: T2, TAOK2 (Homo sapiens, UniProt Q9UL54)
T2 construct: AssayQuant Technologies, Inc. (contract assay)
T2 sequence (Q9UL54 1-1235): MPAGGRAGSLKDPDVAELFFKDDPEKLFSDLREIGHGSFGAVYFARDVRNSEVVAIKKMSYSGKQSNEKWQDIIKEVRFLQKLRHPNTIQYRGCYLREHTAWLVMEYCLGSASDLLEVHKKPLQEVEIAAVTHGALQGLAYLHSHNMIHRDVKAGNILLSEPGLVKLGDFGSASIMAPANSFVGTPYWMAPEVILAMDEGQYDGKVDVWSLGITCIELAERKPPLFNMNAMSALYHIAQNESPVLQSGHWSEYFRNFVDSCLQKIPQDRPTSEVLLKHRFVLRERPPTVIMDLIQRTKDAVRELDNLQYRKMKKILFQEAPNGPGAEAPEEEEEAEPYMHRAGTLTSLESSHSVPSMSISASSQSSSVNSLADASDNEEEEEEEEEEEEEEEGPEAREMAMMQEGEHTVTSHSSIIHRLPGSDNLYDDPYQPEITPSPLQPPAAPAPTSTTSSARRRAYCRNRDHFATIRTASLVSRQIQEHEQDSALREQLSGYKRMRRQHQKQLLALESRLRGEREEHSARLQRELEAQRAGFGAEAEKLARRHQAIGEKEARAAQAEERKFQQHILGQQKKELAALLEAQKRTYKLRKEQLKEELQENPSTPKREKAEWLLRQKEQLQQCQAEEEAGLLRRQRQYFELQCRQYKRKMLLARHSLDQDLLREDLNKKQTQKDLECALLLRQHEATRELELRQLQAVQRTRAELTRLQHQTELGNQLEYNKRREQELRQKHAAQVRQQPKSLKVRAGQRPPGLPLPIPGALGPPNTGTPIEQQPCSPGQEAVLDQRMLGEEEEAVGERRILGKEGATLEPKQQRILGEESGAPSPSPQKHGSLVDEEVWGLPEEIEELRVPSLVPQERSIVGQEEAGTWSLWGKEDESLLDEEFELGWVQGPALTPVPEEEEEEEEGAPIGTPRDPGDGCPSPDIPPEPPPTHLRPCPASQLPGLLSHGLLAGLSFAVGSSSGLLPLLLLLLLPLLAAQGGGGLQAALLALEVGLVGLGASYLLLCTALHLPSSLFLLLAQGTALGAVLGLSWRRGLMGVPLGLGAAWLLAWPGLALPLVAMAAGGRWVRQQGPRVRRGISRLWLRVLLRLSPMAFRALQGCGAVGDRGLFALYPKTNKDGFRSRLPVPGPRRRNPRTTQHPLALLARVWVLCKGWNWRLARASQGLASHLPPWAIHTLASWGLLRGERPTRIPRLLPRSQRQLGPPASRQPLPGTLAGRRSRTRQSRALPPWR
How it was run: as §1

CDK18 = target: T3, CDK18 (Homo sapiens, UniProt Q07002)
T3 construct: AssayQuant Technologies, Inc. (ran the panel)
How it was run: as §1

ABL1 = ABL1 (Homo sapiens, UniProt P00519)
Chain of ABL1 (P00519 whole entry): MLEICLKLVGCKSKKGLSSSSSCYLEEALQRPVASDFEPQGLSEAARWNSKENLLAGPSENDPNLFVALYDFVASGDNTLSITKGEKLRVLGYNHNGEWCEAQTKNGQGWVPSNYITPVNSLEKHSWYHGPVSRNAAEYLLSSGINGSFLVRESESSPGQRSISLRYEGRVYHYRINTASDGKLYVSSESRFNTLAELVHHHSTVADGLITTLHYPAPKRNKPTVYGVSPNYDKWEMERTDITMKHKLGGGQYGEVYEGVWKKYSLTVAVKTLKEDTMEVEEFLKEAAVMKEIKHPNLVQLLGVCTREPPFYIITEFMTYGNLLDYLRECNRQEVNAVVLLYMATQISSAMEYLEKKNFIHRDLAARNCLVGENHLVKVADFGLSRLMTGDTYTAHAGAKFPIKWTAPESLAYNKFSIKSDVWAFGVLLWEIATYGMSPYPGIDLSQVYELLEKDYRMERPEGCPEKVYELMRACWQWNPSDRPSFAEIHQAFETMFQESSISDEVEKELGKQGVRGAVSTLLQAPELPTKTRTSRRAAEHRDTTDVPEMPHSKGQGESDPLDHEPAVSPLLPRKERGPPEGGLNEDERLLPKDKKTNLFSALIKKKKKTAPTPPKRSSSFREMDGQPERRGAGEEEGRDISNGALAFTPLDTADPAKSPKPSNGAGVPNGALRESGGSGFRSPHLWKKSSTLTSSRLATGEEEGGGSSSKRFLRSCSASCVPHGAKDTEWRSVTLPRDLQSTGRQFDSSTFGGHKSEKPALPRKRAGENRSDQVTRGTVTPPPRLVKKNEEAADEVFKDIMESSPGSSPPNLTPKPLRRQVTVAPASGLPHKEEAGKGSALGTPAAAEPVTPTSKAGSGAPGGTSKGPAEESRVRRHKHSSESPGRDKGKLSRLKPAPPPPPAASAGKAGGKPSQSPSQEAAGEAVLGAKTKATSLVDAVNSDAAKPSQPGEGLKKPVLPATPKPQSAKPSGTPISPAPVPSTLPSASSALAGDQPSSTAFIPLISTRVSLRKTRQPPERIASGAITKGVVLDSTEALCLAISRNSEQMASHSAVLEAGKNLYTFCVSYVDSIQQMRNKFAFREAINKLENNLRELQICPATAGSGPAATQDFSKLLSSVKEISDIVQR
How it was run: as §1

IKBKE/IKKE = target: T4, IKBKE/IKKE (Homo sapiens, UniProt Q14164)
T4 construct: AssayQuant Technologies, Inc. (service provider)
T4 sequence (Q14164 1-716): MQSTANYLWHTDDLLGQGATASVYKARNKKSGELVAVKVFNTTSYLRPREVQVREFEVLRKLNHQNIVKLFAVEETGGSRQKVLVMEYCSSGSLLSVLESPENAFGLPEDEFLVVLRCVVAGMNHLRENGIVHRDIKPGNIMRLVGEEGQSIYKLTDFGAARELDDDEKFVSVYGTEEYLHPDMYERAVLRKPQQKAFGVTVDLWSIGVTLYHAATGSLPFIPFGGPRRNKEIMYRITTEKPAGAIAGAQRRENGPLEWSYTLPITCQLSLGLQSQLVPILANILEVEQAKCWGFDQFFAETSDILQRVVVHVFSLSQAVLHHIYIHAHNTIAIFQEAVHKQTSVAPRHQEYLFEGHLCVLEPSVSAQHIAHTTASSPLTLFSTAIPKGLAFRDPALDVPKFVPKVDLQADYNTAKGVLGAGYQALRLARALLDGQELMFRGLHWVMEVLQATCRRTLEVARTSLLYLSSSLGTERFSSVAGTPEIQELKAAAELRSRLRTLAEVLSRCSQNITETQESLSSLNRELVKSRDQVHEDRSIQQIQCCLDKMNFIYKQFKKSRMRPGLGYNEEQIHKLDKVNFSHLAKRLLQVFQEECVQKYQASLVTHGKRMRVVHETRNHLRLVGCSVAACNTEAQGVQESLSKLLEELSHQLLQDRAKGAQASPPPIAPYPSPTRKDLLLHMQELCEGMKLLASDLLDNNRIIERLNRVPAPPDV
How it was run: as §1

NEK4 = target: T5, NEK4 (Homo sapiens, UniProt P51957)
T5 construct: AssayQuant Technologies, Inc. (assay service)
T5 sequence (P51957 whole entry, species assumed): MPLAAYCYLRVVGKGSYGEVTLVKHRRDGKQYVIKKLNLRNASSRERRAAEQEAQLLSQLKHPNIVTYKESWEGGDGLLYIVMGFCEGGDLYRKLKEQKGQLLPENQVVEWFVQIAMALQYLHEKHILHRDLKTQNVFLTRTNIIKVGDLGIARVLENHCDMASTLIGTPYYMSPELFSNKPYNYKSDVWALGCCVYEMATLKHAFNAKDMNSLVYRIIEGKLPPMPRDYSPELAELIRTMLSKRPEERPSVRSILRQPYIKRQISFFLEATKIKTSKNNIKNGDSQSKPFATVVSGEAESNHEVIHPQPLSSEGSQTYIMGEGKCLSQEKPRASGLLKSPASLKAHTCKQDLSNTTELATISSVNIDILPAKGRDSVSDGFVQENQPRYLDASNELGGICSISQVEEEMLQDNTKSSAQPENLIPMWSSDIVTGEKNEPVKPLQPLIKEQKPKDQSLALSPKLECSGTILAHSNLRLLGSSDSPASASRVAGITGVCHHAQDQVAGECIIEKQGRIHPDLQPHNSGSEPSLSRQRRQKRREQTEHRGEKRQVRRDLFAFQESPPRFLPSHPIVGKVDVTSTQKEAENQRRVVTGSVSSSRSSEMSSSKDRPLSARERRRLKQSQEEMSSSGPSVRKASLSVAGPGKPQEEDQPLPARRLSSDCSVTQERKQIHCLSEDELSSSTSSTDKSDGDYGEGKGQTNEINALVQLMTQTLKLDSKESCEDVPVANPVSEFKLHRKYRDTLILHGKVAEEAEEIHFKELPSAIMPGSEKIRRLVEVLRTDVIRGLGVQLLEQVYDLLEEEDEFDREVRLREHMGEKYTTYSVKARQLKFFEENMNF
How it was run: as §1

FER = FER (Homo sapiens, UniProt P16591)
How it was run: as §1

EGFR = target: T6, EGFR (Homo sapiens, UniProt P00533)
T6 construct: AssayQuant Technologies, Inc. (service laboratory)
T6 sequence (P00533 25-1210, species assumed): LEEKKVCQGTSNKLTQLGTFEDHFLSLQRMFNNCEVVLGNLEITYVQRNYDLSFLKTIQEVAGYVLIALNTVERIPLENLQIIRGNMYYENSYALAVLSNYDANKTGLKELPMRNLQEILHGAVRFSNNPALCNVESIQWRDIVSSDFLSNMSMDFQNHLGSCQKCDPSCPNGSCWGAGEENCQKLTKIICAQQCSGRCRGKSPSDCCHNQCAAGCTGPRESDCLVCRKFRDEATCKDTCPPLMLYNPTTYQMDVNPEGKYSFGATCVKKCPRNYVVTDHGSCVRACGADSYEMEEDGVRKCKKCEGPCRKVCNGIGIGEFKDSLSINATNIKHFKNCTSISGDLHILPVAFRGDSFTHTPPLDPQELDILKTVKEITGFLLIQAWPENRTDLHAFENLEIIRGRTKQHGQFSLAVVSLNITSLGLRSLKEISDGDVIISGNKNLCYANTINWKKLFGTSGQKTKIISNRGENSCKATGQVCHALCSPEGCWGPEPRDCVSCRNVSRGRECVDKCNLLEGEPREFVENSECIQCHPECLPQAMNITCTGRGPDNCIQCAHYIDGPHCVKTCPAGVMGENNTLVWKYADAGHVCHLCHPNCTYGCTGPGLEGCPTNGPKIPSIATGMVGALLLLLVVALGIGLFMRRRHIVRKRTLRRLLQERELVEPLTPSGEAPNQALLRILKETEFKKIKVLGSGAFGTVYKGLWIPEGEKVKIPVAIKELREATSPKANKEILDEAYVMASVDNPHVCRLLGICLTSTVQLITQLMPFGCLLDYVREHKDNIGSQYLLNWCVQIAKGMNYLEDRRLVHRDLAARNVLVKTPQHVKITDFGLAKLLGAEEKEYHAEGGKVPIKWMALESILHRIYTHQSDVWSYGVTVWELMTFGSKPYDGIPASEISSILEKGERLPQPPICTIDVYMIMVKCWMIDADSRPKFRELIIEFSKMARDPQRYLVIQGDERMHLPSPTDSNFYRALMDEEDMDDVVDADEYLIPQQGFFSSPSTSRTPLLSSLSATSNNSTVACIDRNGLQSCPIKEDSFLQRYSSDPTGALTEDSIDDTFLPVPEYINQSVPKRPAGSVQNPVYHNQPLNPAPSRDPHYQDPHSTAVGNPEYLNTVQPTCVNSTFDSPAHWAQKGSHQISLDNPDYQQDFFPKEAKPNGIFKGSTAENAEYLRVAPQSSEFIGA
How it was run: as §1

ROCK1 = ROCK1 (Homo sapiens, UniProt Q13464)
How it was run: as §1

FGFR1 = FGFR1 (Homo sapiens, UniProt P11362)
Chain of FGFR1 (P11362 22-822, species assumed): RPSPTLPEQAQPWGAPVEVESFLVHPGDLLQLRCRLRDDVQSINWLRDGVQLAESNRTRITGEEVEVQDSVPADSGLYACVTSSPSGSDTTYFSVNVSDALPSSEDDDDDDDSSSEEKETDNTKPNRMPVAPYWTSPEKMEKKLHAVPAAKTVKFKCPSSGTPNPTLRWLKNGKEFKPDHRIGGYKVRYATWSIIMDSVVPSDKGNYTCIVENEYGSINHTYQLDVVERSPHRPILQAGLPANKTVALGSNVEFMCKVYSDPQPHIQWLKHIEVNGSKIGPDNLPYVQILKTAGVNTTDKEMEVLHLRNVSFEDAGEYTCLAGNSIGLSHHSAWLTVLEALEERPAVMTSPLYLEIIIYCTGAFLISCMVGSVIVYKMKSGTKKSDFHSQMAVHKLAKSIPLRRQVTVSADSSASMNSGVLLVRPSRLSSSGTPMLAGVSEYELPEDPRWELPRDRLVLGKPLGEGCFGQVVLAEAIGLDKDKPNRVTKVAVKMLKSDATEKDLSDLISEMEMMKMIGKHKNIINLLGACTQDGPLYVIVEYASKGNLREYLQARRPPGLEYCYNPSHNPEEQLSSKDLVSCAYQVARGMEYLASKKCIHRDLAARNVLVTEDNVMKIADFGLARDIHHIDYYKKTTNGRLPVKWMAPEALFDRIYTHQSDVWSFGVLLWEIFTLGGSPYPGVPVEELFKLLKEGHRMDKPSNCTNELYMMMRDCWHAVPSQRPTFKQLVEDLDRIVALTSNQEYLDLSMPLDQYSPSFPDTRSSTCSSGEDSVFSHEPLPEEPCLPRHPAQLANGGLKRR
How it was run: as §1

T1 sequence (P49674 whole entry): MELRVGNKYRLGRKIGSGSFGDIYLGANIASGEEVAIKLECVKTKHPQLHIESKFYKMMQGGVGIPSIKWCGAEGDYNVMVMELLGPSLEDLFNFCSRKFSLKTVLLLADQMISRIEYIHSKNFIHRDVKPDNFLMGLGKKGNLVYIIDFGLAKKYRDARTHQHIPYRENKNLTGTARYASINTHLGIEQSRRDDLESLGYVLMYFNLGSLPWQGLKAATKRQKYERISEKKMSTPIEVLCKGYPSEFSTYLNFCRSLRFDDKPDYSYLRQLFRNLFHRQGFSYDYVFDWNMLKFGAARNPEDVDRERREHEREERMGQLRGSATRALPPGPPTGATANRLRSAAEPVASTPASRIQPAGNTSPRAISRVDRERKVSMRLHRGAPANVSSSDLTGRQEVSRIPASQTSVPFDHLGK

C=CC(=O)N1CCCC(c2c(F)cc(C(N)=O)c3[nH]c4c(c23)CCCCC4)C1 (single isomer, unassigned) [Compound 5-6]
inhibition at 1 µM (CSNK1E/CK1E): -4.2% | inhibition at 1 µM (TAOK2): -14.5% | inhibition at 1 µM (CDK18): 19% | inhibition at 1 µM (ABL1): -14.6% | inhibition at 1 µM (IKBKE/IKKE): 3.4% | inhibition at 1 µM (NEK4): -5.3% | inhibition at 1 µM (FER): 32% | inhibition at 1 µM (EGFR): -7.8% | inhibition at 1 µM (ROCK1): 3.5% | inhibition at 1 µM (FGFR1): 18.4%

C=CC(=O)N1CCC[C@@H](c2c(F)cc(C(N)=O)c3[nH]c4c(c23)CC2(CC4)CC2)C1 [Compound 6-2, (S)-5-(1-acryloylpiperidin-3-yl)-6-fluoro-1,2,4,9-tetrahydrospiro[carbazole-3,1′-cyclopropane]-8-carboxamide]
inhibition at 1 µM (CSNK1E/CK1E): -7.4% | inhibition at 1 µM (TAOK2): -24.8% | inhibition at 1 µM (CDK18): -15% | inhibition at 1 µM (ABL1): 2.5% | inhibition at 1 µM (IKBKE/IKKE): -18% | inhibition at 1 µM (NEK4): -6.5% | inhibition at 1 µM (FER): 2.1% | inhibition at 1 µM (EGFR): -7.7% | inhibition at 1 µM (ROCK1): 2.5% | inhibition at 1 µM (FGFR1): 6.6%

C=CC(=O)N1CCC[C@@H](c2c(F)cc(C(N)=O)c3[nH]c4c(c23)CCC4)C1 [Compound 10-2, (S)-8-(1-acryloylpiperidin-3-yl)-7-fluoro-1,2,3,4-tetrahydrocyclo-penta[b]indole-5-carboxamide]
inhibition at 1 µM (CSNK1E/CK1E): 15.1% | inhibition at 1 µM (TAOK2): 11.4% | inhibition at 1 µM (CDK18): 2% | inhibition at 1 µM (ABL1): 3.1% | inhibition at 1 µM (IKBKE/IKKE): -12.8% | inhibition at 1 µM (NEK4): -11.1% | inhibition at 1 µM (FER): 29.3% | inhibition at 1 µM (EGFR): 1.6% | inhibition at 1 µM (ROCK1): 13.7% | inhibition at 1 µM (FGFR1): 8.7%
